The test system of assay [1] is rat articular chondrocytes (rArCs). In words: WNT/β-catenin agonist or antagonist treatment of rArCs with or without IL-1β. Format: cell-based. Particulars: compound alone (LiCl 5 mM and 10 mM; XAV 0.5, 1 μM).
For assay [2] the test system is unchanged. In words: WNT/β-catenin agonist or antagonist treatment of rArCs with or without TNF-α. Particulars: compound plus 10 ng/mL TNF-α. Format: cell-based.
For assay [3], the system named is destabilization of the medial meniscus model of OA. The conditions noted are these: destabilization of the medial meniscus model of OA in mice; literature; cited from earlier work.
Assay [4] concerns unilateral ACLT model of OA. The conditions noted are these: four weeks following ACLT surgery, previous work (Boyan et al.); cited from earlier work.
The test system of assay [5] is unilateral ACLT model of OA in Sprague Dawley rats. In words: Mild model of OA: unilateral ACLT, weekly intra-articular 24R,25 injections. The format is in vivo, rat. As to the method: A total of 54 skeletally mature male Sprague-Dawley rats (Envigo, Indianapolis, IN), 9-10 weeks of age, weighing 250-300 g at the study onset, were used for these experiments. All animal procedures were performed according to the National Research Council's Guide for the Care and Use of Laboratory Animals guidelines and approved by Virginia Commonwealth University's Institutional Animal Care and Use Committee. All rats were given ad libitum access to standard pellet and water. Based on a previous study (Scott, supra) using a 30% effect size, 20% variance, and a power of 80%, a two-tail analysis indicated an n=8 per group was necessary to yield statistical significance.
The unilateral ACLT study initially included 45 rats. Each treatment group had n=8 plus 1 extra animal in case of morbidity or mortality. Three rats died resulting in a total of 42 rats in the study. Rats were sedated with 2-4% isoflurane anesthesia in 400 mL/min 02 to effect. Unilateral anterior cruciate ligament transections (ACLT, animals=45) were performed by medially translocating the patellar tendon in order to visualize and transect the ACL to create a […] model of OA. Left legs served at contralateral controls (c-control) while right legs received either […] of vehicle injections or 4×10^−7 M 24R,25(OH)2D3 (24R,2S) injections once a week. Eighteen rats were used to examine a 5-week prophylactic treatment duration while another eighteen rats were used to examine a 10-week prophylactic treatment duration. […] However, 3 animals died in this study resulting in an n=8 for the ACLT rats, for the 5-week vehicle (5W-Veh) treated rats, and the 10-week 24R,25 (10W-24R,25) treated rats. Animals were killed after 70 days. Hind-limbs were collected and micro-CT and histological analyses were performed. […]
The articular cartilage area, fibrotic area, and percent healthy subchondral bone were measured using Zen 2012 Blue Edition software. For the unilateral ACLT study: the articular cartilage area was measured on 2-3 slides per sample and the average area for each sample was reported for medial tibias. […]

Assay [6] deals with IL-1β stimulated increases in MMP-13, PGE2, and NO. The conditions noted are these: cited from earlier work.
Assay [7] has as its system bilateral ACLT model of OA in Sprague Dawley rats. In words: Severe model of OA: bilateral ACLT, weekly intra-articular 24R,25 injections. The conditions noted are these: 10 weeks. The format is in vivo, rat. As to the method:
The second study created a more severe model of OA by performing bilateral ACLTs, using the experimental design shown in FIG. 2B. Treatment groups had n=8 plus 1 extra animal in case of morbidity or mortality. Nine animals were sedated using 2-4% isoflurane anesthesia in 400 mL/min O2 to effect. Bilateral anterior cruciate ligament transections were performed by medially translocating the patellar tendon in order to visualize and transect the ACL. Left legs received vehicle injections and right legs received 24R,25 injections once weekly using the same injection regimen outlined for the previous study. Animals were killed 70 days post-ACLT, and serum and hind-limbs were collected.
24R,25(OH)2D3 was obtained from Enzo Life Sciences (Plymouth Meeting, PA) and dissolved in ethanol at a stock concentration of 10^−4 M in accordance with a previously established protocol (see Boyan et al. PLoS One. 2016; 11(8):e0161782). 40 μL of stock 24R,25 was dissolved in 10 mL sterile 1×PBS to create a final treatment concentration of 4×10^−7 M 24R,25. All animals received injections of 25 μL of 4×10^−7 M 24R,25 in right legs or vehicle (40 μL ethanol dissolved in sterile 1×PBS to a final concentration of 0.4%) in left legs once a week for 70 days based on a previously established protocol (see Boyan et al., supra).
Samples were decalcified for 7 days using Decal™ (StatLab Medical Products, Mckinney, TX), rinsed in running DI water for 15 mins, dehydrated in a series of 70-100% ethanol and xylene washes, and embedded with Richard-Allan Scientific Histoplast Paraffin (VWR, Radnor, PA). 5 μm sections were cut every 100-200 μm throughout the joint using a manual microtome (Shandon Finesse 325, Thermo Scientific) and stained using hematoxylin and eosin (H&E), toluidine blue, or Masson's trichrome. Samples were imaged using Zen 2012 Blue Edition software with an AxioCam MRc5 camera and Axio Observer Z.1 microscope (Carl Zeiss Microscopy, Oberkochen, Germany).
The articular cartilage area, fibrotic area, and percent healthy subchondral bone were measured using Zen 2012 Blue Edition software. For the unilateral ACLT study: the articular cartilage area was measured on 2-3 slides per sample and the average area for each sample was reported for medial tibias. […] For the bilateral ACLT study, articular cartilage area, fibrotic area, and the percent healthy subchondral bone were measured on one slide per sample for medial femurs. The subchondral bone plate was measured and subdivided into healthy regions (normal cartilage above) and unhealthy regions (subchondral bone remodeling and osteophyte formation, cartilage erosion/delamination). The percent healthy subchondral bone was reported as healthy subchondral bone divided by total subchondral bone*100.
Two blinded reviewers scored histological samples and assigned a grade (0-6.5) to assess OA depth progression into the cartilage and a stage (0-4) to assess the horizontal extent of cartilage involvement along the articulating surface according to the OARSI scoring system guidelines (see Pritzker et al. Osteoarthritis Cartilage. 2006 January; 14(1):13-29). The grade and stage were multiplied together to obtain the OARSI score. The higher the score, the more severe OA present, with a max possible score of 26. […]
Data are represented as mean±standard error. […] Blood serum of day 0 vs day 70 was analyzed used a two-tailed paired t-test using an alpha=0.05. […]

[8] abbreviates: 10W 24R,25 vs 10W-Veh vs ACLT alone.
The mark [9] stands for this setting: bilateral ACLT, 24R,25 vs vehicle limbs.

“And” between values parts separate entries of the source, which are not always exact repeats. Equal entries are not always repeated.

With `Oc1nc(-c2ccc(C(F)(F)F)cc2)nc2c1CSCC2` [XAV, XAV-939], the “total DNA” value in assay [1] was “this was not seen”; in assay [2], “decrease in total DNA”. Besides, the cartilage degradation result in assay [3] is “reduced cartilage degradation”.
With `C=C1CC[C@H](O)C/C1=C/C=C1\CCC[C@]2(C)[C@@H]([C@H](C)CC[C@@H](O)C(C)(C)O)CC[C@@H]12` [24R,25, 24R,25-Dihydroxyvitamin D3], the OA progression entry in assay [4] is “mitigated OA progression”. Further, in assay [5] (setting [8]), the “cartilage area by histomorphometric analysis, medial tibias” value is given as “no difference in cartilage area”; the “micro-CT cartilage volume, medial and lateral tibia” value was “no difference in cartilage volume between groups”. Also, in assay [5] (unilateral ACLT, 4×10^−7 M 24R,25 once a week for 10 weeks, day 70, max possible score 26), the “mean OARSI score, medial tibias” value was 5.11. In assay [6], the “IL-1β stimulated increases in MMP-13, PGE2, and NO” value is “able to prevent”. Further, the “OARSI score (average)” value in assay [7] (bilateral ACLT, 24R,25 once weekly, day 70) was 16.61 and 15. The “articular cartilage area, medial femurs (histomorphometric analysis)” value in assay [7] (bilateral ACLT, 24R,25 right legs vs vehicle left legs, once weekly) is “significantly less articular cartilage area compared to vehicle limbs”. In addition, in assay [7] (setting [9]), the “fibrotic area, medial femurs” value is “equivalent amount” and the “percent healthy subchondral bone, medial femurs” value was “equivalent amount”. In addition, the “mitigation of OA progression / OA severity” value in assay [7] (severe (bilateral ACLT) model) is “did not provide evidence of mitigation of OA progression”.

(Values after patent publication US20230407304A1, “USE OF MICRORNA INHIBITION TO PREVENT AND TREAT OSTEOARTHRITIS AND OTHER INFLAMMATORY DISEASES” (VIRGINIA COMMONWEALTH UNIVERSITY, priority 2020, published 2023).)
